Reference: patent US20200170983A1, “METHODS FOR THE TREATMENT OF BLADDER CANCER” (Cipla Limited, priority 2015, published 2020)
pIC50: −log10 of the molar value. Read-outs that look alike come from different tables or passages of the source.

Tests used:
BXF 1036 [1] = assay: In vitro 3D clonogenic assay (colony formation in semi-solid medium); format: cell-based, human; settings: for pIC50: BXF 1036, absolute IC50
Experimental: (§1) The clonogenic assay was carried out in a 96 well plate format using ultra low attachment plates. For each test, cells were prepared as described above and assay plates were prepared as follows: each test well contained a layer of semi-solid medium with tumor cells (50 μL), and a second layer of medium supernatant with or without test compound (100 μL). The cell layer consisted of 2·103 to 3·103 tumor cells per well, which were seeded in 50 μL/well cell culture medium (IMDM, supplemented with 20% (v/v) fetal calf serum, 0.01% (w/v) gentamicin, and 0.4% (w/v) agar. After 24 hours the test compounds were added after serial dilution in cell culture medium, and left on the cells for the duration of the experiment (continuous exposure, 100 μl drug overlay). Every plate included six untreated control wells and drug-treated groups in duplicate at 9 concentrations. Cultures were incubated at 37° C. and 7.5% CO2 in a humidified atmosphere for 8 to 13 days and monitored closely for colony growth using an inverted microscope. Within this period, ex vivo tumor growth led to the formation of colonies with a diameter of >50 μm. At the time of maximum colony formation, counts were performed with an automatic image analysis system (Bioreader 5000-Wa Biosys GmbH). 48 hours prior to evaluation, vital colonies were stained with a sterile aqueous solution of 2-(4-iodophenyl)-3-(4-nitrophenyl)-5-phenyltetrazolium chloride (1 mg/ml, 100 μl/well).

BXF T24 [2] = assay: as above; format: cell-based, human; settings: for pIC50: BXF T24, absolute IC50
Experimental: as §1

BXF 1352 [3] = assay: as above; format: cell-based, human; settings: BXF 1352, absolute IC50
Experimental: as §1

BXF 5637 = assay: as above; format: cell-based, human; settings: BXF 5637, absolute IC50
Experimental: as §1

BXF 1218 [4] = assay: as above; format: cell-based, human; settings: for pIC50: BXF 1218, absolute IC50
Experimental: as §1

BXF T24 [5] = assay: Combination study, 3D clonogenic assay, 5x5 matrix, Bliss independence; format: cell-based, human; settings: BXF T24, monotherapy controls of the 5x5 combination matrix, read-out: IC50, colony formation, single agent
Experimental: (§2) The objective of this study was to assess anti-tumor efficacy of adapalene in combination with cisplatin in a 5×5 matrix combination format against various bladder cancer cell lines. Efficacy of the combinations was assessed by measuring anchorage-independent growth and in vitro tumor colony formation using a 3D clonogenic assay in cell lines BXF 1036L, BXF 1218L, and BXF T24.
(§3) The compounds were tested in bladder cell lines, namely BXF 1036L, BXF 1218L, and BXF T24. Cells lines of BXF 1036L and BXF 1218L were established at Oncotest in Freiburg from the corresponding patient-derived xenografts. BXF T24 cells were obtained from American Type Culture Collection (Rockville, Md., USA). Authenticity of cell lines was confirmed at the DSMZ by STR analysis.
(§4) Cell lines were routinely passaged once or twice weekly and maintained in culture for up to 20 passages. Cells were grown at 37° C. in a humidified atmosphere with 5% CO2 in RPMI 1640 medium (25 mM HEPES, with L-glutamine, Biochrom) supplemented with 10% (v/v) fetal calf serum and 0.1 mg/mL gentamicin. The percentage of viable cells was determined in a Neubauer-hemocytometer using trypan blue exclusion.
(§5) The clonogenic assay was carried out in a 96 well plate format using ultra low attachment plates. For each test cells were prepared as described above, and assay plates were prepared as follows: each test well contained a layer of semi-solid medium with tumor cells (50 μl), and a second layer of medium supernatant with or without test compounds (100 μl). The cell layer consisted of 5·10^3 to 7.5·10^3 tumor cells per well, which were seeded in 50 μl/well cell culture medium (IMDM, supplemented with 20% (v/v) fetal calf serum, 0.01% (w/v) gentamicin, and 0.4% (w/v) agar). After 24 h, the soft-agar layer was covered with 90 μl of the same culture medium without agar, and compounds were added after serial dilution in DMSO and transfer in cell culture medium and left on the cells for the duration of the experiment (continuous exposure, 100 μL total drug overlay). Every plate included six untreated control wells and drug-treated groups. Cultures were incubated at 37° C. and 7.5% CO2 in a humidified atmosphere for 8 to 13 days and monitored closely for colony growth using an inverted microscope. Within this period, ex vivo tumor growth led to the formation of colonies with a diameter of >50 μm. At the time of maximum colony formation, counts were performed with an automatic image analysis system (CellInsight NXT, Thermo Scientific). 48 hours prior to evaluation, vital colonies were stained with a sterile aqueous solution of 2-(4-iodophenyl)-3-(4-nitrophenyl)-5-phenyltetrazolium chloride (1 mg/ml, 100 μl/well).

BXF 1036L = assay: as above; format: cell-based, human; settings: monotherapy controls of the 5x5 combination matrix, read-out: IC50, colony formation, single agent
Experimental: as §2, §3, §4, §5

[6] = tested on: five selected human bladder cancer cell lines; assay: In vitro 2D assay, mean over the panel; format: cell-based
From the text: (§6) In the present study the human bladder cancer cell lines BXF 1036, BXF 1218, BXF 1352, 5637 and T24 were used. BXF 1036, BXF 1218 and BXF 1352 were established at Oncotest from the corresponding human patient derived xenograft. T24 was purchased from ATCC (Rockville, Md., USA) and 5637 was from DSMZ (Braunschweig, Germany). Authenticity of cell lines was confirmed at the DSMZ by STR (short tandem repeat) analysis, a PCR based DNA-fingerprinting methodology. Cell lines were routinely passaged once or twice weekly and maintained in culture for up to 20 passages. All cells were grown at 37° C. in a humidified atmosphere with 5% CO2 in RPMI 1640 medium (25 mM HEPES, with L-glutamine, #FG1385, Biochrom, Berlin, Germany) supplemented with 10% (v/v) fetal calf serum (Sigma, Taufkirchen, Germany) and 0.1 mg/mL gentamicin (Life Technologies, Karlsruhe, Germany).
(§7) The CellTiter-Blue® Cell Viability Assay (#G8081, Promega) was used according to manufacturer's instructions. Briefly, cells were harvested from exponential phase cultures, […] on the cell line's growth rate. After a 24 h recovery period to allow the cells to resume exponential growth, test compounds were added. Compounds were applied at 9 concentrations in half-log increments in duplicate and treatment continued for 96 h. After 96 h treatment of cells, 20 μL/well CellTiter-Blue® reagent was added.
(§8) Following an incubation period of up to four hours, fluorescence (FU) was measured by using the Enspire Multimode Plate Reader (excitation λ=531 nm, emission λ=615 nm). For calculations, the mean values of duplicate/sixfold (untreated control) data were used. Sigmoidal concentration-response curves were fitted to the data points (T/C values) obtained for each cell line using 4 parameter non-linear curve fit (Oncotest Warehouse Software).

BXF 1036 [7] = assay: In vitro 2D assay (CellTiter-Blue cell viability); format: cell-based, human; settings: BXF 1036, 96 h treatment
From the text: as §6, §7, §8

BXF 1352 [8] = assay: In vitro 2D assay (CellTiter-Blue cell viability); format: cell-based, human; settings: BXF 1352, 96 h treatment
From the text: as §6, §7, §8

T24 = assay: In vitro 2D assay (CellTiter-Blue cell viability); format: cell-based, human
From the text: as §6, §7, §8

BXF 1218 [9] = assay: In vitro 2D assay (CellTiter-Blue cell viability); format: cell-based, human; settings: BXF 1218, 96 h treatment
From the text: as §6, §7, §8

5637 = assay: In vitro 2D assay (CellTiter-Blue cell viability); format: cell-based, human
From the text: as §6, §7, §8

[10] = tested on: 5 human tumor cell lines of bladder cancer; assay: In vitro 3D clonogenic assay, mean over the panel; format: cell-based; settings: for pIC50: colony formation; for IC50, Geo. Mean: geometric mean of five cell lines
Experimental: as §1

BXF 1218L = assay: Combination study, 3D clonogenic assay, 5x5 matrix, Bliss independence; format: cell-based, human; settings: monotherapy controls of the 5x5 combination matrix, read-out: IC50, colony formation, single agent
Experimental: The objective of this study was to assess anti-tumor efficacy of adapalene in combination with cisplatin in a 5×5 matrix combination format against various bladder cancer cell lines. Efficacy of the combinations was assessed by measuring anchorage-independent growth and in vitro tumor colony formation using a 3D clonogenic assay in cell lines BXF […], BXF […], and BXF T24. […] The compounds were tested in bladder cell lines, namely BXF […], BXF […], and BXF T24. Cells lines of BXF […] and BXF […] were established at Oncotest in Freiburg from the corresponding patient-derived xenografts. BXF T24 cells were obtained from American Type Culture Collection (Rockville, Md., USA). Authenticity of cell lines was confirmed at the DSMZ by STR analysis. Cell lines were routinely passaged once or twice weekly and maintained in culture for up to 20 passages. Cells were grown at 37° C. in a humidified atmosphere with 5% CO2 in RPMI 1640 medium (25 mM HEPES, with L-glutamine, Biochrom) supplemented with 10% (v/v) fetal calf serum and 0.1 mg/mL gentamicin. The percentage of viable cells was determined in a Neubauer-hemocytometer using trypan blue exclusion. […] Cultures were incubated at 37° C. and 7.5% CO2 in a humidified atmosphere for 8 to 13 days and monitored closely for colony growth using an inverted microscope. […]

For `COc1ccc(-c2ccc3cc(C(=O)O)ccc3c2)cc1C12CC3CC(CC(C3)C1)C2` [Adapalene], the pIC50 (BXF 1036 [1]; Homo sapiens) was 5.01, the “activity relative to mean IC50 (above average = individual IC50 value < 1/2 mean IC50)” value (“activity relative to mean IC50” for short) (BXF T24 [2]; BXF T-24) was “above average activity” and the pIC50 (BXF T24 [2]; Homo sapiens) was at most 4.00. The pIC50 (BXF 1352 [3]; Homo sapiens) was 4.89, the pIC50 (BXF 5637; Homo sapiens) was 5.04 and the “activity relative to mean IC50” value (BXF 1218 [4]; BXF 1218) was “above average activity”. For the same compound, the pIC50 (BXF 1218 [4]; Homo sapiens) was 5.32, the pIC50 (BXF T24 [5]; Homo sapiens) was 5.46 and the pIC50 (BXF 1036L; Homo sapiens) was 4.97. The pIC50 ([6]; Homo sapiens, geometric mean of five cell lines, read-out: IC50, Geo. Mean) was 5.17, the “difference between the most sensitive and most resistant cell line” value ([6]; IC50 of T24 vs BXF 1352) was 4 fold and the pIC50 (BXF 1036 [7]; Homo sapiens) was 5.00. It also gave a pIC50 (BXF 1352 [8]; Homo sapiens) of 4.86, a pIC50 (T24; Homo sapiens, T-24, T24, 96 h treatment) of 5.48 and a pIC50 (BXF 1218 [9]; Homo sapiens) of 5.22. The pIC50 (5637; Homo sapiens, 2D assay, 5637, 96 h treatment) was 5.27, the pIC50 ([10]; Homo sapiens, read-out: mean absolute IC50 value) was 4.85 and the pIC50 ([10]; Homo sapiens, read-out: mean relative IC50 value) was 5.13. The “IC50, Geo. Mean” value [10] was 14.01 µM.

With `N.N.[Cl][Pt][Cl]` [Cisplatin, cisplatin] the pIC50 (BXF 1036 [1]) was 5.40, the “activity relative to mean IC50” value (BXF 1036 [1]; BXF 1036, based on relative IC50 values) was “above average activity” and the pIC50 (BXF T24 [2]) was 4.28. For the same compound, the pIC50 (BXF 1352 [3]) was 5.06, the pIC50 (BXF 5637) was 5.00 and the pIC50 (BXF 1218 [4]) was 5.27. The pIC50 (BXF 1218L) was 5.17, the pIC50 (BXF T24 [5]) was 4.11 and the pIC50 (BXF 1036L) was 5.22. The pIC50 ([6]; all cell lines tested, read-out: geometric mean absolute IC50 value) was 5.07, the pIC50 (BXF 1036 [7]) was 5.02 and the pIC50 (BXF 1352 [8]) was 4.77. The pIC50 (T24; BXF T24, 96 h treatment) was 5.38, the pIC50 (BXF 1218 [9]) was 5.15 and the pIC50 (5637; 2D assay, BXF 5637, 96 h treatment) was 5.01. The pIC50 ([10]; read-out: mean absolute IC50 value) was 5.00, the pIC50 ([10]; read-out: mean relative IC50 value) was 5.01 and the “IC50, Geo. Mean” value [10] was 9.93 µM. The “Bottom plateaus of the concentration-effect curves” value ([10]; responding tumor models) was under 10%.
